Experimental data published in ChEMBL document CHEMBL3856285, “Recent progress in the identification of adenosine monophosphate-activated protein kinase (AMPK) activators” (Bioorg Med Chem Lett, 2016).

Tests used:
[1] = target: T1, AMP-activated protein kinase (AMPK) alpha-1/beta-1/gamma-1 (Homo sapiens) (UniProt P54619+Q9Y478+Q13131); experiment: Activation of full length human recombinant AMPK alpha1/beta1/gamma1 expressed in baculovirus infected sf21 cells using 5'-FAM-SAMS peptide substrate after 45 mins by fluorescence assay relative to AMP
T1 sequence (P54619 whole entry, one chain of several): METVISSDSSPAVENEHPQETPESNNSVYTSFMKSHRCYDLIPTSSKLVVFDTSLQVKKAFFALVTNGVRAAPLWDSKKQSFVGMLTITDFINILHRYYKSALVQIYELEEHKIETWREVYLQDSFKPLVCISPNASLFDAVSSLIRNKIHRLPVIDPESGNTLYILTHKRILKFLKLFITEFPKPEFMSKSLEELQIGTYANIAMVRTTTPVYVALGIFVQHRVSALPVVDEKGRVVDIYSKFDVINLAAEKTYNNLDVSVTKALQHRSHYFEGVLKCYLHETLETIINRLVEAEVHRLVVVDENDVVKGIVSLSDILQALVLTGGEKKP
T1 sequence (Q13131 whole entry partner, one chain of several): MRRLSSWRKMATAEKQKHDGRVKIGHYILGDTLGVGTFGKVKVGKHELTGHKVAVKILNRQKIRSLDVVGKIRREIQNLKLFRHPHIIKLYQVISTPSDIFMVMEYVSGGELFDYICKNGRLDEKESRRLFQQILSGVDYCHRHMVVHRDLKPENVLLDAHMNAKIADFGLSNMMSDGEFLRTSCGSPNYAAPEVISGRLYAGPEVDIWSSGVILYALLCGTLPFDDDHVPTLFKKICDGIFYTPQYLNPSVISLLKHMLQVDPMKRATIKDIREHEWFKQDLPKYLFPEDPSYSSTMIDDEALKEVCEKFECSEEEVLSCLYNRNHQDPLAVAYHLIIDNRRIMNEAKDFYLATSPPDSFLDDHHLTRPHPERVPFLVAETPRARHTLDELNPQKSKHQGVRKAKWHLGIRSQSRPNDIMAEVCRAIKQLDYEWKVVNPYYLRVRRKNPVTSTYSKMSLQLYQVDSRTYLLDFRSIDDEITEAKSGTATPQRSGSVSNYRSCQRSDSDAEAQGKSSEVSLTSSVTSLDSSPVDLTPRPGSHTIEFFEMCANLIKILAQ

[2] = target: T2, AMP-activated protein kinase (AMPK) alpha-1/beta-1/gamma-1 (Homo sapiens, UniProt P54619+Q13131+Q9Y478); experiment: Activation of full length human recombinant AMPK alpha1/beta1/gamma1 expressed in baculovirus infected sf21 cells using 5'-FAM-SAMS peptide substrate after 45 mins by fluorescence assay
T2 sequence (P54619 whole entry, one chain of several): as the sequence (P54619 whole entry, one chain of several) above
T2 sequence (Q13131 whole entry, one chain of several): as the sequence (Q13131 whole entry partner, one chain of several) above

[3] = target: T2, AMP-activated protein kinase (AMPK) alpha-1/beta-1/gamma-1; experiment: (§1) Activation of human recombinant AMPK GST-tagged alpha1/Myc-tagged beta1/HA-tagged gamma1 expressed in African green monkey COS7 cells assessed as increase in SAMS peptide phosphorylation measured after 10 mins in presence of [gamma33P]ATP by scintillation counting method relative to control; assay type: cell-based, COS-7
[4] = target: T1, AMP-activated protein kinase (AMPK) alpha-1/beta-1/gamma-1 (Homo sapiens); experiment: as §1; assay type: cell-based; details: COS-7
[5] = target: T3, 5'-AMP-activated protein kinase subunit beta-1 (Homo sapiens, UniProt Q9Y478); experiment: Activation of human recombinant AMPK beta1 expressed in African green monkey COS7 cells or baculovirus infected insect cells assessed as increase in biotinylated […] (1 to 120 residues) peptide phosphorylation at Ser-79 residue measured after 60 mins by Alphascreen assay; parameters: species or system COS-7
T3 sequence (Q9Y478 whole entry): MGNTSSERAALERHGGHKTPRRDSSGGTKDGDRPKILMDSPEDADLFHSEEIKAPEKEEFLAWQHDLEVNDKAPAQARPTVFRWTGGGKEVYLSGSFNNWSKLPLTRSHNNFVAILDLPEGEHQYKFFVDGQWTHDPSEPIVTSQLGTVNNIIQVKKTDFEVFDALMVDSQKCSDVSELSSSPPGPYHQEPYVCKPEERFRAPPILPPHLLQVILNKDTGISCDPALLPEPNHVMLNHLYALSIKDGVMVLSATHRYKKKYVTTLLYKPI

[6] = target: T4, 5'-AMP-activated protein kinase subunit beta-2 (Homo sapiens, UniProt O43741); experiment: Activation of human recombinant AMPK beta2 expressed in African green monkey COS7 cells or baculovirus infected insect cells assessed as increase in biotinylated […] (1 to 120 residues) peptide phosphorylation at Ser-79 residue measured after 60 mins by Alphascreen assay; parameters: species or system COS-7
T4 sequence (O43741 whole entry): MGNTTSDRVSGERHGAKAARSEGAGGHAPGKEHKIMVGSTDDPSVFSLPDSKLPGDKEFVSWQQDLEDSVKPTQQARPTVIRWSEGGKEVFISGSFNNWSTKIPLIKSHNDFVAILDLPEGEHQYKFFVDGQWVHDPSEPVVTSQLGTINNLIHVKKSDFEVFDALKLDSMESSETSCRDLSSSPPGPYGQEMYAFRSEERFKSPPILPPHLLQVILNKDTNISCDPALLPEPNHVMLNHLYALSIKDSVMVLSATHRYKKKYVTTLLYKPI

[7] = target: T2, AMP-activated protein kinase (AMPK) alpha-1/beta-1/gamma-1; experiment: Activation of full length human His/GST-tagged AMPK alpha1/beta1/gamma1 expressed in baculovirus expression system after 1 hr by Z'Lyte assay
[8] = target: T2, AMP-activated protein kinase (AMPK) alpha-1/beta-1/gamma-1; experiment: Activation of human recombinant AMPK alpha1/beta1/gamma1 expressed in Escherichia coli BL21-CodonPlus (DE3)-RIPL using SAMS peptide after 10 mins in presence of [gamma33P]ATP by scintillation counting
Rattus norvegicus [9] = species on record: Rattus norvegicus; experiment: Activation of rat liver AMPK assessed as increase in biotinylated AMARAA peptide phosphorylation at 200 uM measured after 30 mins by DELFIA assay relative to control
[10] = target: T5, AMPK alpha2/beta2/gamma1 (Homo sapiens) (UniProt P54646+O43741+P54619); experiment: Activation of full length human His6-tagged AMPK alpha2/beta2/gamma1 expressed in Escherichia coli BL21-CodonPlus (DE3)-RIPL preincubated for 10 mins followed by FL-Peptide 7 substrate addition measured after 2 hrs by fluorescence assay
T5 sequence (P54619 whole entry, looked up, one chain of several): as the sequence (P54619 whole entry, one chain of several) above
T5 sequence (P54646 whole entry, looked up, one chain of several): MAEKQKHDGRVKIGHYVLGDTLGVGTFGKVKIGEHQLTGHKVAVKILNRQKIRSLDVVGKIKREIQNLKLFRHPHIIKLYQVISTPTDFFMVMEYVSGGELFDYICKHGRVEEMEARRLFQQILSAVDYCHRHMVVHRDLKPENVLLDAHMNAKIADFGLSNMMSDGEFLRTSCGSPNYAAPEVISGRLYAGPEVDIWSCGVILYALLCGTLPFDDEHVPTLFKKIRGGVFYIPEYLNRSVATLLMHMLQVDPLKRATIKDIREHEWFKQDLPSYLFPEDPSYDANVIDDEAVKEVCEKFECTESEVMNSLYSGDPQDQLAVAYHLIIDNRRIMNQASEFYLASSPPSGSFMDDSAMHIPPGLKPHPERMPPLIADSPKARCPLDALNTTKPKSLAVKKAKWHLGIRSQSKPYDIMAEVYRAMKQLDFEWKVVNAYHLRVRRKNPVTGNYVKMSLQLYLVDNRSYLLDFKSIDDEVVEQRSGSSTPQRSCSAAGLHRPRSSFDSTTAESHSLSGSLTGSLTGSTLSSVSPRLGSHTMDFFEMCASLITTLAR

[11] = target: T1, AMP-activated protein kinase (AMPK) alpha-1/beta-1/gamma-1 (Homo sapiens); experiment: Activation of full length human recombinant AMPK alpha1/beta1/gamma1 preincubated for 10 mins followed by FL-Peptide 7 addition measured after 2 hrs by fluorescence assay; assay type: protein-complex assay
[12] = target: T1, AMP-activated protein kinase (AMPK) alpha-1/beta-1/gamma-1 (Homo sapiens); experiment: Activation of full length human recombinant AMPK alpha1/beta1/gamma1 preincubated for 10 mins followed by FL-Peptide 7 addition measured after 2 hrs by fluorescence assay relative to AMP; assay type: protein-complex assay
[13] = target: T5, AMPK alpha2/beta2/gamma1 (Homo sapiens); experiment: Activation of full length human His6-tagged AMPK alpha2/beta2/gamma1 expressed in Escherichia coli BL21-CodonPlus (DE3)-RIPL preincubated for 10 mins followed by FL-Peptide 7 substrate addition measured after 2 hrs by fluorescence assay relative to AMP
Rattus norvegicus [14] = species on record: Rattus norvegicus
Description: Allosteric activation of rat liver AMPK in presence of ATP relative to control

[15] = target: T2, AMP-activated protein kinase (AMPK) alpha-1/beta-1/gamma-1; experiment: Activation of full length human recombinant AMPK alpha1/beta1/gamma1 expressed in baculovirus infected sf21 cells using SAMS peptide substrate after 30 mins in presence of [33P]ATP by TopCount analysis
[16] = target: T1, AMP-activated protein kinase (AMPK) alpha-1/beta-1/gamma-1 (Homo sapiens); experiment: Activation of full length human recombinant AMPK alpha1/beta1/gamma1 expressed in baculovirus infected sf21 cells using SAMS peptide substrate after 30 mins in presence of [33P]ATP by TopCount analysis relative to AMP
[17] = Activation of rat liver AMPK assessed as increase in 33P-phosphorylation of SAMS peptide
[18] = target: T6, AMP-activated protein kinase, AMPK (Homo sapiens) (UniProt P54646+O43741+P54619+Q9UGJ0+Q9Y478+Q13131+Q9UGI9); experiment: Activation of human recombinant AMPK assessed as increase in ADP accumulation using SAMS peptide after 30 mins by fluorescence assay
Mus musculus = experiment: Antidiabetic activity in […] ob/ob mouse model assessed as reduction in blood glucose level at 150 mg/kg, po bid for 8 days relative to control; assay type: functional; details: 192 h
[19] = target: T6, AMP-activated protein kinase, AMPK (Homo sapiens); experiment: Activation of AMPK (unknown origin) assessed as residual activity at 30 uM using AMARAA peptide after 30 mins by DELFIA assay relative to control

## CC(C)(O)c1ccc(-c2cc3nc(O[C@H]4CO[C@H](CO)[C@@H](O)C4)[nH]c3cc2Cl)cc1
[1]
  %max: 379%
[2]
  EC50: 4 nM

## C(=N\c1cnc2ccccc2c1)/c1ccc2ccccc2n1
[3]
  EC50: 1800 nM
[4]
  fold change (FC): 2.7

## O=C(O)c1c[nH]c2ccc(-c3ccc(-c4c(O)cccc4O)cc3)cc12
[5]
  EC50: < 500 nM
[6]
  EC50: < 5000 nM

## Cc1cc(-c2c(O)c3cc(-c4ccc(N(C)C)cc4)c(Cl)cc3[nH]c2=O)on1
[7]
  EC50: 39.8 nM

## Cc1cc(-c2ccc(/C=C3\S/C(=N\c4ccc(Cl)c(C(=O)O)c4)NC3=O)o2)c([N+](=O)[O-])cc1C
[8]
  EC50: 300 nM

## COc1ccc(NC(=O)Nc2ccc(Cn3cnc(O)c3C(N)=O)cc2)cc1
Rattus norvegicus [9]
  Activity: 229%

## Cc1ccc(Oc2nc3nc(-c4ccc(-c5ccccc5O)cc4)c(Cl)cc3[nH]2)cc1C(=O)O
[10]
  EC150: 4.3 nM
[11]
  EC150: 0.42 nM
[12]
  %max: 355%
[13]
  %max: 292%

## O=C(O)c1ccccc1O
Rattus norvegicus [14]
  A0.5: 1 mM

## Cc1ccc(Oc2nc3cc(-c4ccc(N5CCOCC5)cc4)c(Cl)cc3[nH]2)cc1P(=O)(O)O
[15]
  EC50: 1.2 nM
[16]
  %max: 224%

## N#Cc1c(O)c2c(-c3ccc(-c4ccccc4O)cc3)csc2[nH]c1=O
[17]
  EC50: 800 nM

## CC1(C)Cc2cc(C(=O)O)ccc2NC1c1cccc(N2C(=O)OCC2(C)C)c1 (stereo not given)
[18]
  EC30: 1150 nM

## O=c1[nH]c2sc(Cl)c(-c3ccc4c(c3O)CCCC4)c2c(O)c1-c1ccccc1
Mus musculus
  inhibition in vivo at 150 mg/kg: 41%
[19]
  Activity: > 130%
